Test results taken from ChEMBL document CHEMBL4616725, “Global PROTAC Toolbox for Degrading BCR-ABL Overcomes Drug-Resistant Mutants and Adverse Effects” (J Med Chem, 2020).
pEC50, pIC50: −log10 of the molar value. The source made the active and inactive calls. No cut-off for these calls is given here.

Tests used:
[1] = test system: K562; assay: Antiproliferative activity against human K562 cells incubated for 3 days by CCK8 assay; assay type: functional, cell-based; conditions: K562, 72 h
[2] = test system: BaF3; assay: Antiproliferative activity against wild type mouse BA/F3 cells incubated for 3 days by CCK8 assay; assay type: cell-based; conditions: BaF3, 72 h
[3] = test system: Protein cereblon/Tyrosine-protein kinase ABL1/Breakpoint cluster region protein (Homo sapiens), P00519+P11274+Q96SW2 [T315I]; assay: Protac activity at Cereblon/BCR/ABL T315I mutant (unknown origin) expressed in mouse BaF3 cells assessed as reduction in BCR-ABL T315I mutant protein levels at 3 to 30000 nM incubated for 48 hrs by Western blot analysis; assay type: cell-based
[4] = test system: Protein cereblon/Tyrosine-protein kinase ABL1/Breakpoint cluster region protein (Homo sapiens), P00519+P11274+Q96SW2 [T315I]; assay: Protac activity at Cereblon/BCR/ABL T315I mutant (unknown origin) expressed in mouse BaF3 cells assessed as reduction in BCR-ABL T315I mutant protein levels at 1 uM incubated for 48 hrs by Western blot analysis; assay type: cell-based
[5] = biological target: Protein cereblon/Tyrosine-protein kinase ABL1/Breakpoint cluster region protein (Homo sapiens, UniProt P00519+P11274+Q96SW2, T315I); assay type: cell-based, BaF3
[6] = biological target: Protein cereblon/Tyrosine-protein kinase ABL1/Breakpoint cluster region protein (Homo sapiens, UniProt P00519+P11274+Q96SW2); assay: Protac activity at Cereblon/BCR/ABL in human K562 cells assessed as induction of BCR-ABL degradation incubated for 32 to 48 hrs by Western blot analysis; assay type: cell-based
[7] = test system: H9c2; assay: Antiproliferative activity against rat H9C2 cells incubated for 3 days by CCK8 assay; assay type: cell-based; conditions: H9c2, 72 h
[8] = test system: HUVEC; assay: Toxicity in HUVEC assessed as inhibition of tube formation at 200 nM incubated for 20 hrs by optical microscopy based matrigel-based assay; assay type: cell-based; conditions: human, 0.2 µM
[9] = test system: HUVEC; assay: Antiproliferative activity against human HUVEC incubated for 3 days by CCK8 assay; assay type: cell-based; conditions: 72 h
[10] = test system: Protein cereblon/Tyrosine-protein kinase ABL1/Breakpoint cluster region protein (Homo sapiens), P00519+P11274+Q96SW2 [T315I]; assay: Protac activity at Cereblon/BCR/ABL T315I mutant (unknown origin) expressed in mouse BaF3 cells assessed as reduction in BCR-ABL T315I mutant protein levels at 3 to 30000 nM incubated for 32 hrs by Western blot analysis; assay type: cell-based

Row | SMILES | pEC50 [5] | DC50 [6] | also measured
1 | Cc1nc(Nc2ncc(C(=O)Nc3c(C)cccc3Cl)s2)cc(N2CCN(CCCCCCOCCOCCOCCCCCC(=O)Nc3cccc4c3C(=O)N(C3CCC(=O)NC3=O)C4=O)CC2)n1 (stereo not given) | – | – | pIC50 [1]: 8.10; pEC50 [2]: < 5.00; Activity [3]: inactive
2 | Cc1cccc(/C=C/c2cnc(Nc3cc(N4CCN(C(=O)CCCc5cn(CCOCCOCCOCCOCCNc6cccc7c6C(=O)N(C6CCC(=O)NC6=O)C7=O)nn5)CC4)nc(C)n3)s2)c1 (stereo not given) | 5.21 | – | Activity [4]: Active; pEC50 [2]: < 5.00; Activity [3]: Active
3 | Cc1ccc(NC(=O)c2ccc(CN3CCN(C(=O)CCCc4cn(CCOCCOCCOCCNc5cccc6c5C(=O)N(C5CCC(=O)NC5=O)C6=O)nn4)CC3)cc2)cc1Nc1nccc(-c2cccnc2)n1 (stereo not given) | – | > 10000 nM | –
4 | Cc1nc(Nc2ncc(C(=O)Nc3c(C)cccc3Cl)s2)cc(N2CCN(C(=O)CCCc3cn(CCOCCNc4cccc5c4C(=O)N(C4CCC(=O)NC4=O)C5=O)nn3)CC2)n1 (stereo not given) | – | 56 nM | –
5 | O=C1CCC(N2C(=O)c3cccc(NCCn4cc(CCCC(=O)N[C@@H]5CCN(c6ncc(C(=O)Nc7ccc(OC(F)(F)Cl)cc7)cc6-c6cc[nH]n6)C5)nn4)c3C2=O)C(=O)N1 (stereo not given in full) | – | > 625 nM | –
6 | O=C1CCC(N2C(=O)c3cccc(NCCOCCOCCOCCOCCn4cc(CCCC(=O)N[C@@H]5CCN(c6ncc(C(=O)Nc7ccc(OC(F)(F)Cl)cc7)cc6-c6cc[nH]n6)C5)nn4)c3C2=O)C(=O)N1 (stereo not given in full) | – | 500 nM | –
7 | C#CCCCC(=O)N1CCN(c2cc(Nc3ncc(/C=C/c4cccc(O)c4)s3)nc(C)n2)CC1 | 5.89 | – | –
8 | Cc1ccc(C(=O)Nc2ccc(CN3CCN(C(=O)CCCc4cn(CCOCCOCCOCCOCCNc5cccc6c5C(=O)N(C5CCC(=O)NC5=O)C6=O)nn4)CC3)c(C(F)(F)F)c2)cc1C#Cc1cnc2cccnn12 (stereo not given) | – | 70 nM | –
9 | Cc1nc(Nc2ncc(C(=O)Nc3c(C)cccc3Cl)s2)cc(N2CCN(C(=O)CCCc3cn(CCOCCOCCOCCNc4cccc5c4C(=O)N(C4CCC(=O)NC4=O)C5=O)nn3)CC2)n1 (stereo not given) | – | 56 nM | –
10 | C#CCCCC(=O)N1CCN(c2cc(Nc3ncc(/C=C/c4cccc(C)c4)s3)nc(C)n2)CC1 | 6.35 | – | –
11 | C#CCCCC(=O)N1CCN(c2cc(Nc3ncc(/C=C/c4cccc(OC)c4)s3)nc(C)n2)CC1 | < 5.00 | – | –
12 | C#CCCCC(=O)N1CCN(c2cc(Nc3ncc(/C=C/c4cccc(F)c4)s3)nc(C)n2)CC1 | 6.11 | – | –
13 | Cc1nc(Nc2ncc(C(=O)Nc3c(C)cccc3Cl)s2)cc(N2CCN(C(=O)CCCc3cn(CCOCCOCCNc4cccc5c4C(=O)N(C4CCC(=O)NC4=O)C5=O)nn3)CC2)n1 (stereo not given) | – | 20 nM | –
14 | C#CCCCC(=O)N1CCN(c2cc(Nc3ncc(/C=C/c4ccc(F)cc4)s3)nc(C)n2)CC1 | 5.49 | – | –
15 | O=C1CCC(N2C(=O)c3cccc(NCCOCCOCCn4cc(CCCC(=O)N[C@@H]5CCN(c6ncc(C(=O)Nc7ccc(OC(F)(F)Cl)cc7)cc6-c6cc[nH]n6)C5)nn4)c3C2=O)C(=O)N1 (stereo not given in full) | – | 300 nM | –
16 | Cc1ccc(NC(=O)c2ccc(CN3CCN(C(=O)CCCc4cn(CCOCCOCCNc5cccc6c5C(=O)N(C5CCC(=O)NC5=O)C6=O)nn4)CC3)cc2)cc1Nc1nccc(-c2cccnc2)n1 (stereo not given) | – | > 10000 nM | –

Row | SMILES | pEC50 [5] | DC50 [6] | also measured
17 | Cc1ccc(C(=O)Nc2ccc(CN3CCN(C(=O)CCCc4cn(CCNc5cccc6c5C(=O)N(C5CCC(=O)NC5=O)C6=O)nn4)CC3)c(C(F)(F)F)c2)cc1C#Cc1cnc2cccnn12 (stereo not given) | – | 625 nM | –
18 | Cc1ccc(NC(=O)c2ccc(CN3CCN(C)CC3)cc2)cc1Nc1nccc(-c2cccnc2)n1 [IMATINIB] | – | – | pIC50 [1]: 7.12
19 | C#CCCCC(=O)N1CCN(c2cc(Nc3ncc(C)s3)nc(C)n2)CC1 | < 5.00 | – | –
20 | C#CCCCC(=O)N1CCN(c2cc(Nc3ncc(/C=C/c4cc(F)cc(F)c4)s3)nc(C)n2)CC1 | 5.82 | – | –
21 | Cc1ccc(NC(=O)c2ccc(CN3CCN(C(=O)CCCc4cn(CCOCCNc5cccc6c5C(=O)N(C5CCC(=O)NC5=O)C6=O)nn4)CC3)cc2)cc1Nc1nccc(-c2cccnc2)n1 (stereo not given) | – | > 10000 nM | –
22 | Cc1nc(Nc2ncc(C(=O)Nc3c(C)cccc3Cl)s2)cc(N2CCN(C(=O)CCCc3cn(CCOCCOCCOCCOCCNc4cccc5c4C(=O)N(C4CCC(=O)NC4=O)C5=O)nn3)CC2)n1 (stereo not given) | < 5.00 | 10 nM | pIC50 [1]: 8.04; pEC50 [2]: < 5.00; Activity [3]: inactive
23 | O=C1CCC(N2C(=O)c3cccc(NCCOCCn4cc(CCCC(=O)N[C@@H]5CCN(c6ncc(C(=O)Nc7ccc(OC(F)(F)Cl)cc7)cc6-c6cc[nH]n6)C5)nn4)c3C2=O)C(=O)N1 (stereo not given in full) | – | 400 nM | –
24 | Cc1ccc(C(=O)Nc2ccc(CN3CCN(C)CC3)c(C(F)(F)F)c2)cc1C#Cc1cnc2cccnn12 [PONATINIB] | – | – | pIC50 [1]: 9.52; pEC50 [7]: 6.42; Activity [8]: Toxic; pEC50 [2]: 6.36; pEC50 [9]: 6.29
25 | Cc1ccc(C(=O)Nc2ccc(CN3CCN(C(=O)CCCc4cn(CCOCCOCCNc5cccc6c5C(=O)N(C5CCC(=O)NC5=O)C6=O)nn4)CC3)c(C(F)(F)F)c2)cc1C#Cc1cnc2cccnn12 (stereo not given) | – | 70 nM | –
26 | C#CCCCC(=O)N1CCN(c2cc(Nc3ncc(/C=C/c4ccc(F)c(F)c4)s3)nc(C)n2)CC1 | 6.24 | – | –
27 | Cc1ccc(NC(=O)c2ccc(CN3CCN(C(=O)CCCc4cn(CCNc5cccc6c5C(=O)N(C5CCC(=O)NC5=O)C6=O)nn4)CC3)cc2)cc1Nc1nccc(-c2cccnc2)n1 (stereo not given) | – | > 10000 nM | –
28 | Cc1nc(Nc2ncc(C(=O)Nc3c(C)cccc3Cl)s2)cc(N2CCN(CCO)CC2)n1 [DASATINIB] | – | – | pIC50 [1]: 9.72; pEC50 [2]: < 5.00
29 | O=C1CCC(N2C(=O)c3cccc(NCCOCCOCCOCCn4cc(CCCC(=O)N[C@@H]5CCN(c6ncc(C(=O)Nc7ccc(OC(F)(F)Cl)cc7)cc6-c6cc[nH]n6)C5)nn4)c3C2=O)C(=O)N1 (stereo not given in full) | 5.99 | 200 nM | Activity [10]: Active; pIC50 [1]: 6.92; pEC50 [2]: < 5.00
30 | Cc1ccc(NC(=O)c2ccc(CN3CCN(C(=O)CCCc4cn(CCOCCOCCOCCOCCNc5cccc6c5C(=O)N(C5CCC(=O)NC5=O)C6=O)nn4)CC3)cc2)cc1Nc1nccc(-c2cccnc2)n1 (stereo not given) | – | > 10000 nM | –
31 | Cc1nc(Nc2ncc(C(=O)Nc3c(C)cccc3Cl)s2)cc(N2CCN(C(=O)CCCc3cn(CCNc4cccc5c4C(=O)N(C4CCC(=O)NC4=O)C5=O)nn3)CC2)n1 (stereo not given) | – | 56 nM | –
32 | Cc1ccc(C(=O)Nc2ccc(CN3CCN(C(=O)CCCc4cn(CCOCCNc5cccc6c5C(=O)N(C5CCC(=O)NC5=O)C6=O)nn4)CC3)c(C(F)(F)F)c2)cc1C#Cc1cnc2cccnn12 (stereo not given) | – | 70 nM | –
